Measurements taken from ChEMBL document CHEMBL1132016, “Catalytic activity of carboxypeptidase B and of carboxypeptidase Y with anisylazoformyl substrates” (Bioorg Med Chem Lett, 1999).
One block for each molecule: values may come before it.

Experiments:
[1] = Ratio of kinetic constants (kcat/km) for the inhibition against carboxypeptidase B
[2] = biological target: T1, Carboxypeptidase B (Sus scrofa) (UniProt P09955); test: Substrate kinetic value (kcat) against porcine carboxypeptidase B
T1 sequence (whole entry): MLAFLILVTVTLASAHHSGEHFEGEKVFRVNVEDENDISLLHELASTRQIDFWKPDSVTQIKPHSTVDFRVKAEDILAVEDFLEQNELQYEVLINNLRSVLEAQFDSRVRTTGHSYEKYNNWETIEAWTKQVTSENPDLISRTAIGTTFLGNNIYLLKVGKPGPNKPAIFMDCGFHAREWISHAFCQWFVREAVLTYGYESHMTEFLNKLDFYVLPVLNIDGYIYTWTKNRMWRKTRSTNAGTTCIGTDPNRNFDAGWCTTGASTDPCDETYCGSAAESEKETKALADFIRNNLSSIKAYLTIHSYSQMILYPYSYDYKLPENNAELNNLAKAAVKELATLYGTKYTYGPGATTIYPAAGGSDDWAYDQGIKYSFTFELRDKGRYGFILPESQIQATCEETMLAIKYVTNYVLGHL

[3] = substrate: C[C@@H](NC(=O)/C=C/c1ccco1)C(=O)N[C@@H](CCCCN)C(=O)O; test: (§1) Affinity to porcine carboxypeptidase B at pH 7.9
[4] = substrate: COc1ccc(/N=N/C(=O)NC(CCCCN)C(=O)O)cc1; test: as §1

Ratio [1]: 36000 M⁻¹ s⁻¹
Molecule: C[C@@H](NC(=O)/C=C/c1ccco1)C(=O)N[C@@H](CCCCN)C(=O)O

Ratio [1]: 95000 M⁻¹ s⁻¹
k cat [2]: 76 s⁻¹
Molecule: COc1ccc(/N=N/C(=O)NC(CCCCN)C(=O)O)cc1 (stereo not given)

B1: Carboxypeptidase B (Sus scrofa), P09955 (protein)
chain: T1 sequence (whole entry)
Km [3]: 1160 µM
Km [4]: 810 µM
